Laboratory results taken from paper PMC8315004, “Discovery of Small-Molecule Inhibitors of SARS-CoV-2 Proteins Using a Computational and Experimental Pipeline” (Frontiers in Molecular Biosciences, 2021).
Where a name gives a salt, the structure may show the parent alone.

Biological target: SARS-CoV-2 M^pro (Severe acute respiratory syndrome coronavirus 2, UniProt P0DTD1)
Test: biochemical
Design: inhibition: dose or concentration left out as unconfirmed
Settings: for inhibition / Normalized Percent FRET inhibition: initial screen, Table S4; for inhibition / inhibition at 100 µM: read-out: Normalized Percent FRET inhibition; for Normalized Percent FRET inhibition: 100 μM of drug

Structure (SMILES) | inhibition | other results
CC1(C)CCC(CN2CCN(c3ccc(C(=O)NS(=O)(=O)c4ccc(NCC5CCOCC5)c([N+](=O)[O-])c4)c(Oc4cnc5[nH]ccc5c4)c3)CC2)=C(c2ccc(Cl)cc2)C1 [ABT199] | 6.27% | –
C[C@H]1O[C@H](O[C@H]2[C@H](O)[C@@H](O)[C@@H](O[C@H]3[C@H](O)[C@@H](O)C(O)O[C@@H]3CO)O[C@@H]2CO)[C@H](O)[C@@H](O)[C@@H]1N[C@H]1C=C(CO)[C@@H](O)[C@H](O)[C@H]1O (some centres unmarked) [Acarbose] | -3.44% | –
C[C@H]1CN(C[C@H](Cc2ccccc2)C(=O)NCC(=O)O)CC[C@@]1(C)c1cccc(O)c1 [Alvimopan] | -3.26% | –
C[C@@H](O[C@H]1OCCN(Cc2n[nH]c(=O)[nH]2)[C@H]1c1ccc(F)cc1)c1cc(C(F)(F)F)cc(C(F)(F)F)c1 [Aprepitant] | 3.37% | –
CC1CNc2c(cccc2S(=O)(=O)N[C@@H](CCCNC(=N)N)C(=O)N2CC[C@@H](C)C[C@@H]2C(=O)O)C1 (some centres unmarked) [Argatroban] | 13.5% | –
COC(=O)N[C@H](C(=O)N[C@@H](Cc1ccccc1)[C@@H](O)CN(Cc1ccc(-c2ccccn2)cc1)NC(=O)[C@@H](NC(=O)OC)C(C)(C)C)C(C)(C)C [Atazanavir] | -1.97% | –
CC1=C(C(=O)OC(C)C)C(c2cccc([N+](=O)[O-])c2)C(C(=O)OC2CN(C(c3ccccc3)c3ccccc3)C2)=C(N)N1 (centres unmarked) [Azelnidipine] | 8.17% | –
CCOc1nc2cccc(C(=O)OCc3oc(=O)oc3C)c2n1Cc1ccc(-c2ccccc2-c2noc(=O)[nH]2)cc1 [Azilsartan Medoxomil] | -1.99% | –
CC1(C)S[C@@H]2[C@H](NC(=O)[C@H](NC(=O)N3CCNC3=O)c3ccccc3)C(=O)N2[C@H]1C(=O)O [Azlocillin sodium] | -0.915% | –
NS(=O)(=O)c1cc2c(cc1C(F)(F)F)NC(Cc1ccccc1)NS2(=O)=O (centres unmarked) [Bendroflumethiazide] | 11.6% | –
COc1cc(N2CCC(N3CCN(C)CC3)CC2)ccc1Nc1ncc(Cl)c(Nc2ccccc2P(C)(C)=O)n1 [Brigatinib] | 5.97% | –
COc1cc2nccc(Oc3ccc(NC(=O)C4(C(=O)Nc5ccc(F)cc5)CC4)cc3)c2cc1OC [Cabozantinib Malate] | 0.386% | –
Nc1nc(=O)c2c([nH]1)NC[C@H](CNc1ccc(C(=O)N[C@@H](CCC(=O)[O-])C(=O)[O-])cc1)N2C=O.[Ca+2] [Calcium Levofolinate] | – | Normalized Percent FRET inhibition: 13%
CN1c2c(nc(N)[nH]c2=O)NCC1CNc1ccc(C(=O)N[C@@H](CCC(=O)O)C(=O)O)cc1 (some centres unmarked) [Calcium N5-methyltetrahydrofolate] | – | inhibition at 100 µM: 3.74%
CCOc1nc2cccc(C(=O)O)c2n1Cc1ccc(-c2ccccc2-c2nnn[nH]2)cc1 [Candesartan] | – | effect in the FRET-based activity assay (in words): no effect
CO/N=C(\C(=O)N[C@@H]1C(=O)N2C(C(=O)O)=C(CSc3nnnn3C)CS[C@H]12)c1csc(N)n1.CO/N=C(\C(=O)N[C@@H]1C(=O)N2C(C(=O)O)=C(CSc3nnnn3C)CS[C@H]12)c1csc(N)n1.Cl [Cefmenoxime hydrochloride] | – | Normalized Percent FRET inhibition: -1.304%
CCN1CCN(C(=O)N[C@@H](C(=O)N[C@@H]2C(=O)N3C(C(=O)O)=C(CSc4nnnn4C)CS[C@H]23)c2ccc(O)cc2)C(=O)C1=O [Cefoperazone sodium] | – | Normalized Percent FRET inhibition (100 µM): 14.81%
CCN1CCN(C(=O)N[C@@H](C(=O)N[C@@H]2C(=O)N3C(C(=O)O)=C(CSc4nnnn4C)CS[C@H]23)c2ccc(O)cc2)C(=O)C1=O [Cefoperazone] | – | Normalized Percent FRET inhibition (100 µM): -0.3067%
CO[C@@]1(NC(=O)C2SC(=C(C(N)=O)C(=O)O)S2)C(=O)N2C(C(=O)O)=C(CSc3nnnn3C)CS[C@@H]21 (some centres unmarked) [Cefotetan] | 2.14% | –
Cc1cc(O)c(C(=O)N[C@@H](C(=O)N[C@@H]2C(=O)N3C(C(=O)O)=C(CSc4nnnn4C)CS[C@H]23)c2ccc(O)cc2)cn1 [Cefpiramide acid] | – | Normalized Percent FRET inhibition: 7.373%
CC(C)C(=O)OCC(=O)[C@@]12O[C@H](C3CCCCC3)O[C@@H]1C[C@H]1[C@@H]3CCC4=CC(=O)C=C[C@]4(C)[C@H]3[C@@H](O)C[C@@]12C [Ciclesonide] | -0.393% | –
CC(C)CN(C[C@@H](O)[C@H](Cc1ccccc1)NC(=O)O[C@H]1CO[C@H]2OCC[C@H]21)S(=O)(=O)c1ccc(N)cc1.CCO [Darunavir Ethanolate] | – | Normalized Percent FRET inhibition: -1.838%
C[C@H]1O[C@@H](O[C@H]2[C@@H](O)C[C@H](O[C@H]3[C@@H](O)C[C@H](O[C@H]4CC[C@@]5(C)[C@H](CC[C@@H]6[C@@H]5CC[C@]5(C)[C@@H](C7=CC(=O)OC7)CC[C@]65O)C4)O[C@@H]3C)O[C@@H]2C)C[C@H](O)[C@@H]1O [Digitoxin] | 0.197% | –
COc1ccc(-c2cc(=O)c3c(O)cc(O[C@@H]4O[C@H](CO[C@@H]5O[C@@H](C)[C@H](O)[C@@H](O)[C@H]5O)[C@@H](O)[C@H](O)[C@H]4O)cc3o2)cc1O [Diosmin] | -0.378% | –
COc1cc2nc(N3CCN(C(=O)C4COc5ccccc5O4)CC3)nc(N)c2cc1OC (centres unmarked) [Doxazosin mesylate] | 0.919% | –
C[C@]12C=CC(=O)N[C@@H]1CC[C@@H]1[C@@H]2CC[C@]2(C)[C@@H](C(=O)Nc3cc(C(F)(F)F)ccc3C(F)(F)F)CC[C@@H]12 [Dutasteride] | -2.38% | –
CC1=C(C(=O)OCCN(Cc2ccccc2)c2ccccc2)C(c2cccc([N+](=O)[O-])c2)C(P2(=O)OCC(C)(C)CO2)=C(C)N1 (centres unmarked) [Efonidipine] | -1.16% | –

Structure (SMILES) | inhibition | other results
CC1=NN(c2ccc(C)c(C)c2)C(=O)/C1=N\Nc1cccc(-c2cccc(C(=O)O)c2)c1O [Eltrombopag Olamine] | 23.7% | –
CC1(C)[C@@H](O)CC[C@]2(C)[C@H]3C(=O)C=C4[C@@H]5C[C@@](C)(C(=O)O)CC[C@]5(C)CC[C@@]4(C)[C@]3(C)CC[C@@H]12 [Enoxolone] | 4.01% | –
C#C[C@]1(O)CC[C@H]2[C@@H]3CCc4cc(O)ccc4[C@H]3CC[C@@]21C [Ethynyl estradiol] | -3.17% | –
Cc1cc(C#N)cc(C)c1Oc1nc(Nc2ccc(C#N)cc2)nc(N)c1Br [Etravirine] | -0.895% | –
O=C1[C@H](CC[C@H](O)c2ccc(F)cc2)[C@@H](c2ccc(O)cc2)N1c1ccc(F)cc1 [Ezetimibe] | -1.34% | –
CC1(C)O[C@@H]2C[C@H]3[C@@H]4C[C@H](F)C5=CC(=O)C=C[C@]5(C)[C@@]4(F)[C@@H](O)C[C@]3(C)[C@]2(C(=O)CO)O1 [Fluocinolone acetonide] | 0.0249% | –
CCC(=O)O[C@@H](O[P@](=O)(CCCCc1ccccc1)CC(=O)N1C[C@H](C2CCCCC2)C[C@H]1C(=O)[O-])C(C)C.[Na+] [Fosinopril sodium] | – | Normalized Percent FRET inhibition: 3.315%
CC(C)=CCC[C@](C)(O[C@@H]1O[C@H](CO)[C@@H](O)[C@H](O)[C@H]1O)[C@H]1CC[C@]2(C)[C@@H]1[C@H](O)C[C@@H]1[C@@]3(C)CC[C@H](O)C(C)(C)[C@@H]3[C@@H](O[C@@H]3O[C@H](CO)[C@@H](O)[C@H](O)[C@H]3O)C[C@]12C [Ginsenoside Rg1] | 4.19% | –
OCCOCCN1CCN(C(c2ccccc2)c2ccc(Cl)cc2)CC1 (centres unmarked) [Hydroxyzine Pamoate] | 12.9% | –
C=CC(=O)N1CCC[C@@H](n2nc(-c3ccc(Oc4ccccc4)cc3)c3c(N)ncnc32)C1 [Ibrutinib] | -1.91% | –
CCc1c2c(nc3ccc(OC(=O)N4CCC(N5CCCCC5)CC4)cc13)-c1cc3c(c(=O)n1C2)COC(=O)[C@]3(O)CC.Cl.O.O.O [Irinotecan hydrochloride trihydrate] | – | Normalized Percent FRET inhibition: -2.22%
C[C@@H](c1nc(-c2ccc(C#N)cc2)cs1)[C@](O)(Cn1cncn1)c1cc(F)ccc1F [Isavuconazole] | -0.886% | –
CS(=O)(=O)CCNCc1ccc(-c2ccc3ncnc(Nc4ccc(OCc5cccc(F)c5)c(Cl)c4)c3c2)o1 [Lapatinib Ditosylate] | -1.57% | –
CC#CCn1c(N2CCC[C@@H](N)C2)nc2c1c(=O)n(Cc1nc(C)c3ccccc3n1)c(=O)n2C [Linagliptin] | 8.28% | –
COc1ccc(CN2CCN(C(c3ccc(F)cc3)c3ccc(F)cc3)CC2)c(OC)c1OC.Cl.Cl [Lomerizine hydrochloride] | – | Normalized Percent FRET inhibition: -0.2765%
Cc1cccc(C)c1OCC(=O)N[C@@H](Cc1ccccc1)[C@@H](O)C[C@H](Cc1ccccc1)NC(=O)[C@H](C(C)C)N1CCCNC1=O [Lopinavir] | 18.2% | –
OC[C@H]1O[C@H](O[C@H]2[C@H](O)[C@@H](O)[C@@H](O[C@H]3[C@H](O)[C@@H](O)[C@@H](O[C@H]4[C@H](O)[C@@H](O)C(O)O[C@@H]4CO)O[C@@H]3CO)O[C@@H]2CO)[C@H](O)[C@@H](O)[C@@H]1O (some centres unmarked) [MALTOTETRAOSE] | – | Normalized Percent FRET inhibition: -0.9055%
C#C[C@]1(O)CC[C@H]2[C@@H]3CCc4cc(OC)ccc4[C@H]3CC[C@@]21C [Mestranol] | -1.1% | –
CN(c1nccc(=O)[nH]1)C1CCN(c2nc3ccccc3n2Cc2ccc(F)cc2)CC1 [Mizolastine] | -0.317% | –
Cc1c(O)cccc1C(=O)N[C@@H](CSc1ccccc1)[C@H](O)CN1C[C@H]2CCCC[C@H]2C[C@H]1C(=O)NC(C)(C)C [Nelfinavir Mesylate] | 30.8% | –
CO[C@@H]1[C@@H](OC(N)=O)[C@@H](O)[C@H](Oc2ccc3c(O)c(NC(=O)c4ccc(O)c(CC=C(C)C)c4)c(=O)oc3c2C)OC1(C)C [Novobiocin Sodium] | -0.228% | –
CCCc1nc(C(C)(C)O)c(C(=O)OCc2oc(=O)oc2C)n1Cc1ccc(-c2ccccc2-c2nnn[nH]2)cc1 [Olmesartan Medoxomil] | 2.83% | –
C=CC(=O)Nc1cccc(Oc2nc(Nc3ccc(N4CCN(C)CC4)cc3)nc3ccsc23)c1 [Olmutinib] | -0.795% | –
C[C@@H]1O[C@@H](O[C@H]2C[C@@H](O)[C@]3(CO)[C@H]4[C@H](O)C[C@]5(C)[C@@H](C6=CC(=O)OC6)CC[C@]5(O)[C@@H]4CC[C@]3(O)C2)[C@H](O)[C@H](O)[C@H]1O [Ouabain octahydrate] | -0.948% | –
CC(=O)O[C@H]1C[C@@H]2CC[C@@H]3[C@H](CC[C@@]4(C)[C@H]3C[C@H]([N+]3(C)CCCCC3)[C@@H]4OC(C)=O)[C@@]2(C)C[C@@H]1[N+]1(C)CCCCC1 [Pancuronium bromide] | – | inhibition at 100 µM: 10%
Cc1cnc(C(=O)N[C@H]2CCCCC/C=C\[C@@H]3C[C@@]3(C(=O)NS(=O)(=O)C3CC3)NC(=O)[C@@H]3C[C@@H](Oc4nc5ccccc5c5ccccc45)CN3C2=O)cn1 [Paritaprevir] | 0.758% | –
